Data on 1 substance can be found in US10150945B2, “Cell culture device and manufacturing method therof” (JNC CORPORATION, priority 2004, dated 2018).

This data set concerns A549 cells (human lung cancer cells).

Protocol: The cytotoxicity of ε-polylysines, the coating material used in the invention, to A549 cells (human lung cancer cells, obtained from ATCC) was evaluated. The cytotoxicity to ε-polylysine hydrochloride (Chisso Corp.) was compared with that to α-polylysine hydrobromide (Wako Pure Chemical, average molecular weight 15,000).
A549 cells were seeded on a 96-well microplate at a density of 1×10^4 cells/well. After culturing overnight at 37° C. under 5% CO2 using DME medium (containing 10% bovine embryonic serum), the medium was removed with an aspirator, and 40 μL each of fresh medium 1.25 times more concentrated as standard was added to each well. Finally 10 μL each of a polylysine salt solution that would eventually attain the specified concentration, and cultured at 37° C. for 3 hours.
After the 3-hour culture, the medium was removed again by an aspirator, 100 μL/well of fresh medium was added, and culture continued for 46 hours. The medium was still once more replaced by 110 μL of fresh medium, 10 μL each of Cell Counting Kit-8 (Dojindo Laboratories) was added and continued to be cultured for 2 hours at 37° C. for color reaction. A plate reader (Thermo Labsystems Multiskan Ascent BIF) was used to determine the absorbance at 450 nm (with 650 nm as a reference) and calculate the viability of the cells.

Take α-polylysine hydrobromide: the “viability of the cells (FIG. 5)” value is recorded as “no difference”.
